Experiments:
[1] = tested on: HSV-1 R8411; test: microbe, parasite or virus in culture; format: cell-based, herpes simplex virus 1; conditions: for efficacy against HSV-1 (in words): ARPE-19, 24 h post-infection; for EC50: Human alphaherpesvirus 1, ARPE-19, 24 h, 24 h; for SI (CC50/EC50): Table 10, HSV1, buffered medium
Experimental: (§1) Next, cells were infected at a MOI of 0.05 with either HSV-1 R8411 or HSV-2-Luc, both which expresses firefly luciferase, in either standard DMEM medium (10% FBS) or standard DMEM medium (10% FBS) buffered with 3.024 g/L sodium bicarbonate. Treatments were prepared in the different medium conditions and added at the time of infection. All assays were imaged at 24 h post-infection and/or treatment. The compounds tested for this experiment included: Test Composition in unbuffered medium, Test Composition in buffered medium, acyclovir in unbuffered medium and acyclovir in buffered medium. All graphs, EC50, CC50, and CC50/EC50 calculations were performed using GraphPad software based on Lysine equivalent concentrations.
(§2) HSV-1 or HSV-2 infected cells were measured by bioluminescence imagining in the dose-response assay. Each plate contained a set of untreated wells in each media condition (unbuffered or buffered) to be used as baseline. Test composition concentrations ranged from 3.2 μM to 50 mM in a 1:5 dilution series. Acyclovir concentrations ranged from 0.00256 to 40 μM in a 1:5 dilution series.
(§3) Assays were performed as previously described. […] Next, cells were infected at a MOI of approximately 0.05 with either HSV-1 R8411 or HSV-2 MS-Luciferase, both which expresses firefly luciferase, in DMEM (10% FBS) buffered with 3.024 g/L sodium bicarbonate. Antiviral compounds were prepared in the buffered media, added at the time of infection, and remained for the duration of the assay. Both HSV1 and HSV2 cultures were scanned at 24 h post-infection. Each plate contained untreated wells as a baseline for comparison. The solutions evaluated included original Test Composition and various sets of its components, as well as acyclovir (ACV; control). The table below includes a breakdown of all the different component formulations. Graphs were produced, EC50, and CC50 calculations were performed using GraphPad. Concentrations for Test Composition and its components ranged from 3.2 μM to 50 mM in a 1:5 dilution series. Acyclovir concentrations ranged from 0.00256 to 40 μM in a 1:5 dilution series.

[2] = tested on: HSV-2-Luc; test: microbe, parasite or virus in culture; format: cell-based, herpes simplex virus 2; conditions: for efficacy against HSV-2 (in words): ARPE-19, 24 h post-infection; for EC50: Human alphaherpesvirus 2, ARPE-19, 24 h, 24 h; for SI (CC50/EC50): Table 10, HSV2, buffered medium
Experimental: as §1, §2, §3

[3] = in vitro; format: cell-based; conditions: human, Table 10 HSV1 half, ARPE-19, buffered medium
Experimental: as §3

[4] = tested on: VZV-ORF57-Luc; test: microbe, parasite or virus in culture; format: cell-based, varicella zoster virus; conditions: for EC50: Human alphaherpesvirus 3, ARPE-19, 72 h, 72 h
Experimental: (§4) VZV- or HCMV-infected cells were measured by bioluminescence imagining in the efficacy or dose-response assay. Assays were performed as previously described, with a few modifications. […] Next, cells were infected at a MOI of approximately 0.05 with either VZV-ORF57-Luc or HCMV-eGFP-fLuc, both which expresses firefly luciferase, in either standard DMEM (10% FBS) or DMEM (10% FBS) buffered with 3.024 g/L sodium bicarbonate.
(§5) Antiviral Test Compositions were prepared in the two media, added at the time of infection, and remained for the duration of the assay. VZV cultures were scanned at 72 h post-infection, and HCMV cultures were scanned at 7 days post-infection. Each plate contained untreated wells in each media condition (unbuffered or buffered) as a baseline. Test Composition in unbuffered medium, Test Composition in buffered medium, cidofovir positive control (CDV; for VZV) or ganciclovir positive control (GCV; for HCMV) in unbuffered medium, and CDV (for VZV) or GCV (for HCMV) in buffered medium. All graphs, EC50, and CC50 calculations were performed using GraphPad. Test Composition concentrations ranged from 3.2 μM to 50 mM in a 1:5 dilution series based on Lysine concentrations. Cidofovir concentrations ranged from 0.00128 to 20 μM in a 1:5 dilution series. Ganciclovir concentrations ranged from 0.0064 to 100 μM in a 1:5 dilution series.

[5] = tested on: ARPE-19 cells; test: Cell effect in absence of virus assay, ARPE-19 cells, 72 h, Neutral Red; format: cell-based; conditions: ARPE-19, Buffered DMEM
[6] = as above; format: cell-based; conditions: human, ARPE-19 cells, ARPE-19, Unbuffered DMEM
[7] = in vitro; conditions: human, human foreskin fibroblasts (HFFs)
Experimental: (§6) For the cell effect in absence of virus assay, ARPE-19 cells or HFFs were seeded into 96-well plates and grown for 72 h as described above. Cells were treated with Test Composition in either unbuffered or buffered medium ranging from 1 μM to 100 mM (1:10 dilution). Cidofovir was tested in a range from 0.001 to 100 μM (1:10 dilution). Ganciclovir was tested in a range from 0.002 to 200 μM (1:10 dilution). ARPE-19 cells were treated with Test Composition or Cidofovir for 72 h, then cells were stained with Neutral Red dye and absorbance was measured at 540 nm. HFFs were treated with original Test Composition or Ganciclovir for 7 d, then cells were stained with Neutral Red dye and absorbance was measured at 540 nm.

[8] = tested on: HCMV-eGFP-fLuc; test: HCMV bioluminescence dose-response assay in HFFs; format: cell-based, human cytomegalovirus; conditions: unbuffered and buffered medium
Experimental: as §4, §5

[9] = tested on: human foreskin fibroblasts (HFFs); conditions: Buffered DMEM, 7 d
Experimental: as §6

[10] = in vivo; cited from earlier work
[11] = adults; cited from earlier work

**Q.** What does the source list for `Nc1nc2c(ncn2COCCO)c(=O)[nH]1` [Acyclovir, acyclovir]?
**A.** efficacy against HSV-1 (in words) [1]: worked; efficacy against HSV-1 (in words) ([1]; listed as acyclovir): effective; EC50 ([1]; HSV-1, ARPE-19, Buffered DMEM (sodium bicarbonate)): 0.156 µM; EC50 ([1]; HSV-1, ARPE-19, Unbuffered DMEM, Lysine equivalent concentration): 0.645 µM; EC50 ([1]; Table 10, HSV1, ARPE-19, buffered medium, curves plotted as L-lysine HCl or acyclovir concentration (uM), FIG. 5): 0.225 µM; SI (CC50/EC50) [1]: 444.44; efficacy against HSV-2 (in words) [2]: worked; efficacy against HSV-2 (in words) ([2]; listed as acyclovir): effective; EC50 ([2]; HSV-2, ARPE-19, Buffered DMEM): 6.66 µM; EC50 ([2]; HSV-2, ARPE-19, Unbuffered DMEM): 7.89 µM; EC50 ([2]; Table 10, HSV2, ARPE-19, buffered medium, curves plotted as L-lysine HCl or acyclovir concentration (uM), FIG. 6): 33.1 µM; SI (CC50/EC50) [2]: 3.02; CC50 at 24 h [3]: ≥ 100 µM

**Q.** Which “efficacy against VZV (in words)” value ([4]; ARPE-19, unbuffered and buffered medium) does the source give for `Nc1ccn(C[C@@H](CO)OCP(=O)(O)O)c(=O)n1` [Cidofovir, cidofovir] here?
**A.** effective

**Q.** And the EC50 ([4]; VZV, ARPE-19, Buffered DMEM)?
**A.** 19 µM

**Q.** What about the EC50 ([4]; VZV, ARPE-19, Unbuffered DMEM) of the same molecule?
**A.** 1.72 µM

**Q.** And the “increase of EC50 in buffered medium versus unbuffered medium” value ([4]; VZV)?
**A.** 10 fold

**Q.** What about the “SI (CC50/EC50)” value ([4]; VZV, Buffered DMEM) of the same molecule?
**A.** 5.3

**Q.** And the “SI (CC50/EC50)” value ([4]; VZV, Unbuffered DMEM)?
**A.** 58.2

**Q.** And the CC50 [5]?
**A.** > 100 µM

**Q.** What about the CC50 at 72 h [6] of the same molecule?
**A.** > 100 µM

**Q.** Which CC50 at 7 d [7] does the source give for `Nc1nc(O)c2ncn(COC(CO)CO)c2n1` [Ganciclovir, ganciclovir] here?
**A.** > 200 µM

**Q.** And the “efficacy against HCMV (in words)” value [8]?
**A.** not effective

**Q.** What about the CC50 [9] of the same molecule?
**A.** > 200 µM

**Q.** What does the source list for `Cl.NCCCC[C@H](N)C(=O)O` [Solution 2, L-lysine monohydrochloride]?
**A.** rank of efficacy among test solutions 1-11 against HSV1 ([1]; ARPE-19, buffered medium): least effective; SI (CC50/EC50) [1]: 5; rank of efficacy among test solutions 1-11 against HSV2 ([2]; ARPE-19, buffered medium): least effective; SI (CC50/EC50) [2]: 2.5

**Q.** Which fraction eliminated renally [10] does the source give for `CC(C)[C@H](N)C(=O)OCCOCn1cnc2c(=O)[nH]c(N)nc21` [Valacyclovir] here?
**A.** 89%

**Q.** With `Cc1ncc(CO)c(CO)c1O` [Vitamin B6, Pyridoxine] as the molecule, how does the intake usually safe [11] read?
**A.** up to 200 mg per day

Source: patent publication US20250057865A1, “ANTIVIRAL SUPPLEMENT FORMULATIONS FOR HERPESVIRUS INFECTIONS” (priority 2023, published 2025)
